Three molecules from patent US5149778A, “Cyclic peptides for treating herpes infections” (Bio-Mega, Inc., priority 1989, dated 1992) can be followed below.

Where a SMILES comes first, the peptide text is derived from it. Bridges are numbered along the chain shown (N, C = ends). [ ]: non-standard residue; d: D form. NMeV = CN[C@H](C(=O)O)C(C)C

The target in this experiment is T1, HSV-1 ribonucleotide reductase (Human herpesvirus 1, UniProt P08543).
T1 construct: obtained from quiescent BHK-21/C13 cells infected with strain F HSV-1 virus; endogenous in cells; host or cells: quiescent BHK-21/C13 cells infected with HSV-1 strain F (10 pfu/cell); partially purified viral enzyme
T1 sequence (P08543 whole entry): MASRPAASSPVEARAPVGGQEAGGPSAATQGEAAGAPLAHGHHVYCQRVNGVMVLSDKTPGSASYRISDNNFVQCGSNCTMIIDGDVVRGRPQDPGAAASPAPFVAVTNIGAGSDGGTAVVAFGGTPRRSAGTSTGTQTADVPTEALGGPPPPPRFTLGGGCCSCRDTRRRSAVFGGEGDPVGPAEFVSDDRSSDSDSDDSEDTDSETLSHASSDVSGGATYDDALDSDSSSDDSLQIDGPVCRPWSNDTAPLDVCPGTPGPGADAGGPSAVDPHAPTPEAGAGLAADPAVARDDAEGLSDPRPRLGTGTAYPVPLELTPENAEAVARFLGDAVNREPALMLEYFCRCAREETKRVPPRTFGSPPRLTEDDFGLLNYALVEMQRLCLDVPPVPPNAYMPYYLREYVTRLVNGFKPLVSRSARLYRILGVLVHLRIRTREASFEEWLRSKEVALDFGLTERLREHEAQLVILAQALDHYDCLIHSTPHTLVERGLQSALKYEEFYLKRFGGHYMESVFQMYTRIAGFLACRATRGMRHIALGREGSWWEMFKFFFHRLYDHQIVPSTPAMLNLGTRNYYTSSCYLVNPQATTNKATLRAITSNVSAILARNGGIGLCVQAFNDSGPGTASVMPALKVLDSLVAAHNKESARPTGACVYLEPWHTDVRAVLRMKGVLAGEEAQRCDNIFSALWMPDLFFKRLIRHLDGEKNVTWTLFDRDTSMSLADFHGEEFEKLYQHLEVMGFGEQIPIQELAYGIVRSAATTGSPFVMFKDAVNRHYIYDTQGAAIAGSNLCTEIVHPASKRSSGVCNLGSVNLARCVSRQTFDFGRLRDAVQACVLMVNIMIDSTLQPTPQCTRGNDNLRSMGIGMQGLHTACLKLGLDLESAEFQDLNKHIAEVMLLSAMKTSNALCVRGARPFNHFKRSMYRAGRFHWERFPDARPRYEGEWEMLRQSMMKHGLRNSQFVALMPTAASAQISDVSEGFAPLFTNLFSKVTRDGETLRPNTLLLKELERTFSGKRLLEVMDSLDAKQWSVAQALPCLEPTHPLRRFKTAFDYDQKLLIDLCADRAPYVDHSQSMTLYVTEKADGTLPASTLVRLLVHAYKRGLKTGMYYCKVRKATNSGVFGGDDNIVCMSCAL
The experiment in a line: Inhibition of Herpes Simplex Virus (HSV, type 1) ribonucleotide reductase. The format is biochemical. The note with it: partially purified enzyme from BHK-21/C13 cells infected with strain F HSV-1; relative to control without peptide; mean of four assays; read-out: IC50 (concentration of the peptide producing 50% of the maximal inhibition of enzyme activity). The source says:
Inhibition of Herpes Simplex Virus (HSV, type 1) Ribonucleotide Reductase
HSV-1 ribonucleotide reductase (partially purified) was obtained from quiescent BHK-21/C13 cells infected with strain F HSV-1 virus at 10 plaque forming units/cell as described by E. A. Cohen et al., J. Gen. Virol., 66, 733 (1985).
The procedure described by P. Gaudreau et al., J. Biol, Chem., 262, 12413 (1987) was employed. The assay result for each peptide is expressed as the concentration of the peptide producing 50% of the maximal inhibition (IC50) of enzyme activity. The number of units of the enzyme preparation used in each assay was constant, based on the specific activity of the enzyme preparation. The results are relative to the activity obtained in control experiments without peptide and represent the mean of four assays that varied less than 10% with each other.
On to `CC[C@H](C)[C@@H]1NC(=O)[C@H](C(C)C)NC(=O)[C@H](Cc2ccc(O)cc2)NC(=O)C[C@@H](C(=O)N[C@@H](CC(=O)O)C(=O)N[C@@H](CC(C)C)C(=O)O)NC1=O` [example 1] (YVIDDL-OH; lactam N-4), for which the IC50 is 14.3 µM.

Turning to `CC[C@H](C)[C@@H]1NC(=O)[C@H](C(C)C)N(C)C(=O)[C@H](Cc2ccc(O)cc2)NC(=O)C[C@@H](C(=O)N[C@@H](CC(=O)O)C(=O)N[C@@H](CC(C)C)C(=O)O)NC1=O` [example 2] (Y[NMeV]IDDL-OH; lactam N-4), the IC50 was found to be 140 µM. In the case of `CC[C@H](C)[C@@H]1NC(=O)[C@H](C(C)C)NC(=O)[C@H]([C@@H](C)O)NC(=O)CNC(=O)[C@H](C)NC(=O)[C@H](Cc2ccc(O)cc2)NC(=O)C[C@@H](C(=O)N[C@@H](CC(=O)O)C(=O)N[C@@H](CC(C)C)C(=O)O)NC1=O` [example 3] (YAGTVIDDL-OH; lactam N-7) it was 16 µM.
